# Values of other authors, collected in US20050182030A1, “Liquid injectable formulation of disodium pamidronate” (American Pharmaceutical Partners, Inc., priority 2001, published 2005).
# How the values were obtained:
# [1] = in vivo
# [2] = liquid formulation
# [3] = approximately normal ambient conditions
compound,measurement,setting,value
"NCCC(O)(P(=O)([O-])O)P(=O)([O-])O.[Na+].[Na+] [pamidronate, 3-amino-1-hydroxypropane-1,1-diphosphonate disodium]",Absorption from the gastrointestinal system,[1],poor absorption
same,Stability during long-term storage,[2],unstable/reactive
NCCC(O)(P(=O)(O)O)P(=O)(O)O [pamidronic acid],Solubility in water,,not soluble in water
"NCCC(O)(P(=O)([O-])O)P(=O)([O-])O.O.O.O.O.O.[Na+].[Na+] [pentahydrate, pamidronate disodium pentahydrate]",Stability to storage,[3],stable to storage
